Laboratory results as given in patent publication US5708034A, “Substituted sulfonimidamides, processes for their preparation, their use as a medicament or diagnostic, and medicament comprising them” (Hoechst Aktiengesellschaft, priority 1995, dated 1998).
Counter-ions that a name gives are not always drawn.

Each compound was assayed against T1, Na^+ /H^+ exchanger of rabbit erythrocytes (Oryctolagus cuniculus, UniProt P23791) (assay: Inhibition of the Na^+ /H^+ exchanger of rabbit erythrocytes (amiloride-sensitive Na^+ influx, flame photometry)). Settings: hyperosmolar salt-sucrose medium, pH 7.4, 37° C., sodium influx by flame photometry.
T1 construct: determine the Na^+ influx into the erythrocytes via Na^+ /H^+ exchange by flame photometry; endogenous in cells; host or cells: erythrocytes from ear-artery blood of cholesterol-fed White New Zealand rabbits (animals from Ivanovas)
T1 sequence (P23791 whole entry): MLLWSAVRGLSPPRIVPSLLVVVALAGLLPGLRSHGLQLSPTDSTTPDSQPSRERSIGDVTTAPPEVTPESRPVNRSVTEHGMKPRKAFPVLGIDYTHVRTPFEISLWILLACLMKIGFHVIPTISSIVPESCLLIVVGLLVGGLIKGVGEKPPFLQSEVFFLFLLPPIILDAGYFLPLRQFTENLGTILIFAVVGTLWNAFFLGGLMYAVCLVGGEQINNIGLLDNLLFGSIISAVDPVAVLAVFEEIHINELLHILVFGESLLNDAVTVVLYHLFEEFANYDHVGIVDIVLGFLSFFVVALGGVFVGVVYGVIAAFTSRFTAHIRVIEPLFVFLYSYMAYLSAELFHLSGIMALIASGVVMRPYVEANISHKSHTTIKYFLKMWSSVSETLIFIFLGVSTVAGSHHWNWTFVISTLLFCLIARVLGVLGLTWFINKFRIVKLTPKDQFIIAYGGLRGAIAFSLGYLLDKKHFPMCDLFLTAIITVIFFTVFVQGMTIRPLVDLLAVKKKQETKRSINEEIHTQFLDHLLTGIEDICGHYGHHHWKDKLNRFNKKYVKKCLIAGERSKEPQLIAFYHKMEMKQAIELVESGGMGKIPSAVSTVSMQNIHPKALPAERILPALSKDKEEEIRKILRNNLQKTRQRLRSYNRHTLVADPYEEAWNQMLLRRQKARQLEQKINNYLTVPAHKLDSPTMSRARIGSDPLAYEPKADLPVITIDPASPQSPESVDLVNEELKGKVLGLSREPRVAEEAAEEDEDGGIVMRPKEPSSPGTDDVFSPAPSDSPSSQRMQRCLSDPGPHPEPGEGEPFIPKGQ
Format: cell-based, rabbit (White New Zealand)
Source text: Inhibition of the Na^+ /H^+ exchanger of rabbit erythrocytes
White New Zealand rabbits (Ivanovas) received a standard diet with 2% cholesterol for six weeks in order to activate Na^+ /H^+ exchange and thus to be able to determine the Na^+ influx into the erythrocytes via Na^+ /H^+ exchange by flame photometry. The blood was taken from the ear arteries and rendered incoagulable by means of 25 IU of potassium heparin. A part of each sample was used for the duplicate determination of the hematocrit by centrifugation. Aliquots of 100 μl in each case were used to measure the Na^+ starting content of the erythrocytes.
In order to determine the amiloride-sensitive sodium influx, 100 μl of each blood sample were incubated in each case in 5 ml of a hyperosmolar salt-sucrose medium (mmol/l: 140 NaCl, 3 KCl, 150 sucrose, 0.1 ouabain, 20 tris-hydroxymethylaminomethane) at pH 7.4 and 37° C. The erythrocytes were then washed three times with ice-cold MgCl2 ouabain solution (mmol/l: 112 MgCl2, 0.1 ouabain) and hemolyzed in 2.0 ml of distilled water. The intracellular sodium content was determined by flame photometry.
The net Na^+ influx was calculated from the difference between sodium starting values and the sodium content of the erythrocytes after incubation. The amiloride-inhibitable sodium influx resulted from the difference between the sodium content of the erythrocytes after incubation with and without amiloride 3×10^-4 mol/l. This procedure was also used in the case of the compounds according to the invention.

Row | IC50 | Compound
1 | 2000 µM | CS(=O)(=O)c1cc(C(=O)N=C(N)N)ccc1NS(=N)(=O)c1ccc(F)cc1 (stereo not shown) [Example 3, 3-Methylsulfonyl-4-(4-fluorobenzenesulfimidamoyl)benzoylguanidine]
2 | 6000 µM | CN=S(=O)(NC)c1cc(C(=O)N=C(N)N)ccc1C(C)C (stereo not shown) [Example 4, 2-isopropyl-5-guanidinocarbonylbenzenesulfonic acid N,N'-dimethylimidamide]
3 | 53 µM | CCN=S(=O)(c1ccc(F)cc1)N(CC)c1ccc(C(=O)N=C(N)N)cc1C(F)(F)F (stereo not shown) [Example 2, 4-(4-Fluorobenzene-N,N'-diethylsulfimidamoyl)-3-trifluoro-methylbenzoylguanidine, dihydrochloride]
4 | 680 µM | CCN=S(=O)(c1ccc(F)cc1)N(CC)c1ccc(C(=O)N=C(N)N)cc1S(C)(=O)=O (stereo not shown) [Example 1, 4-(4-Fluorobenzene-N,N'-diethylsulfimidamoyl)-3-methyl-sulfonylbenzoylguanidine, dihydrochloride]
